Reference: US8178688B2, “Benzamidine derivatives, process for the preparation thereof and pharmaceutical composition comprising the same” (Dong Wha Pharmaceutical Co., Ltd., priority 2004, dated 2012)
Read-outs that look alike come from different tables or passages of the source.

Tests used:
osteoblast = assay: Effect on bone formation (osteoblast nodule mineralization, Alizarin red S); format: cell-based, ICR mice; settings: calvarial osteoblast in osteogenic differentiation medium
Description: The osteoblast, treated in this experiment, was prepared from the osteoblast as prepared in the above.
The osteoblast, isolated from sequential enzymatic treatment of calvariae from neonated ICR mice, was cultured in α-MEM medium containing 10% FBS for 4˜5 days. The osteoblast was also cultured for 24 hr after seeding the cells on a 12 well plate (10^5 cell/well), and medium was exchanged with the osteogenic differentiation medium containing 10 mM β-glycerophosphate and 50 μg/ml ascorbic acid.
The test substances at the concentration of 0.1 uM and 0.1 nM were added to the above medium for evaluating the effect promoting bone formation. The differentiation medium containing the test substances was exchanged every 3 or 4 days for 14 to 21 days until confirming the nodule mineralization.
The cell was rinsed twice with distilled water, and fixed by the 10% formalin solutions for 30 minutes. Alizarin red S and Von-kossa Solution were treated on the plate for measuring deposited calcium and phosphate in cell matrix, and the activity of the test substances on the bone formation was analyzed by determining stained area.
Additionally, for the purpose of estimating quantitative Arizarin red S in cell matrix, stained Arizarin red S was extracted by treating 10 mM sodium phosphate solution (pH 7.0), containing 10% cetylpyridinium chloride, for 15˜30 minutes in the shaking incubator, and then the amount of the deposited calcium was estimated by calculating the absorbance of the extracted Arizarin red S at 564 nm. […]

[1] = test system: osteoclast differentiation; assay: Inhibitory effects on osteoclast differentiation (co-culture of bone marrow cells with osteoblast, TRAP staining); format: cell-based, mice; settings: for inhibition at 1 µM: Mus musculus, Osteoclast, 168 h, read-out: % inhibitory activity on osteoclastogenesis
How it was run: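 Bone marrow cells from 6–8-week male ddY mice co-cultured with neonatal ICR mouse calvarial osteoblasts in α-MEM/FBS with dexamethasone (10^−7M) and vitamin D3 (10^−8M) for 7 days, compound and medium renewed every 2–3 days. TRAP-positive cells with ≥3 nuclei counted; inhibition given as percent of control.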

cells = assay: Cytotoxicity test (MTT); format: cell-based; settings: 10^−6M, 72 hrs, compared with the control group
How it was run: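 Benzamidine derivatives were checked for cytotoxicity with an MTT assay. Test substances were diluted in a suitable solvent to 10^−2M. Cells were seeded at 1×10^4 cell/100 μL per well in 96-well microplates and grown for 72 hrs. During the final 4 hrs, 25 μL of MTT (2 mg/mL in PBS) was added. Plates were then centrifuged, the medium removed, formazan dissolved in 100 μL DMSO, and absorbance read at 540 nm.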

ovariectomized ddY mouse = assay: Therapeutic effect in the ovariectomized osteoporetic mouse model (trabecular bone volume of the femur); format: in vivo, ddY mice; settings: 50 mg/kg/day oral gavage for 4 weeks from 4 weeks after ovariectomy, salts (methansulfonic acid or HCl); for change in vivo at 50 mg/kg: Mus musculus, 672 h, read-out: Changes on TBV (% changes vs vehicle control)
Description: The therapeutic effects of each benzamidine derivates were evaluated on the ovariectomized ddY mouse. Benzamidine derivates were dosed from 4 weeks after operation for 4 weeks and the changes on the trabecular bone volume (TBV) of the femur were observed via histomorphometry.
Female ddY mice (6-wk old upon receipt, SLC, Japan) were used after acclimatization for 7 days. Animals were allocated 5 per polycarbonate cage in a temperature (20-25° C.) and humidity (30-35%) controlled room. Light:dark cycle was 12 hr:12 hr and feed (Samyang, Korea) and water were supplied free to access.
Salts of benzamidine derivates (Methansulfonic acid or HCl) were used for the test substances of this invention. Test substances are dissolved and/or suspended in injectable distilled water and administered at a dosage volume of 10 ml/kg by oral gavage. All test substances are dosed from 4 weeks after operation for 4 weeks at 50 mg/kg/day.
To induce estrogen-deficient osteoporosis, bilateral ovaries are removed and then closed by routine methods. Operation was conduct under Ketamine hydrochloride and xylazine hydrochloride anesthesia.
The left femur of each mouse were separated at sacrifice, and fixed in 10% neutral buffered formalin (NBF), then decalcified in decalcifying solution (24.4% formic acid, and 0.5N sodium hydroxide) for 5 days (mixed decalcifying solution was exchanges once a day for 5 days). After the dexalcification, the femur was embedded in paraffin, sectioned (3˜4 μm) and stained with hematoxylin-eosin stain.
TBV was calculated using automated image analysis (analySIS Image Processing; SIS, Germany) under magnification of ×200 in the uniform area of trochlea epiphyseal regions (growth plate regions were excluded) of prepared histological specimens. TBV was calculated as percentage (%) levels.
The changes of TBV compared to that of vehicle control are calculated as following Equation 1 to help the understanding of the efficacy of test substances. Percentage changes=[((TBV of a−TBV of b)/TBV of b)×100] Equation 1

[2] = 1 μm, co-culture of bone marrow cells and osteoblast, 7 days, TRAP-positive osteoclasts versus controls
[3] = 1 m, co-culture of bone marrow cells and osteoblast, 7 days, TRAP-positive osteoclasts versus controls

Compound	melting point	bone forming activity (%) (osteoblast; 0.1 nM)	bone forming activity (%) (osteoblast; 0.1 μM)	inhibition at 1 µM [1, 2]	also measured
N=C(NO)c1ccc(OCCCCCOc2ccc(-c3csc(-c4cccnc4)n3)cc2)cc1 [Example 7, N-hydroxy-4-(5-[4-(2-pyridin-3-yl-1,3-thiazol-4-yl)phenoxy]pentoxy)-benzamidine]	149 to 154 °C	1.24%	9.61%	94.5%	
CCCCCc1nc(-c2ccc(OCCCCCOc3ccc(C(=N)NO)cc3)cc2)cs1 [Example 9, N-hydroxy-4-(5-[4-(2-pentyl-1,3-thiazol-4-yl)phenoxy]pentoxy)-benzamidine]		6.14%	13.68%		inhibition at 1 µM [1]: 100%
CCc1nc(-c2ccc(OCCCCCOc3ccc(C(=N)NO)cc3)cc2)c(C)s1 [Example 11, N-hydroxy-4-(5-[4-(2-ethyl-5-methyl-1,3-thiazol-4-yl)phenoxy]pentoxy)-benzamidine]	127 to 131 °C			53.2%	Survival rates of the cells (cells; MC3T3-E1 cells): 87.2%; Survival rates of the cells (cells; ST2 cells): 33.1%
Cc1sc(C2CCCCC2)nc1-c1ccc(OCCCCCOc2ccc(C(=N)NO)cc2)cc1 [Example 14, N-hydroxy-4-(5-[4-(2-cyclohexyl-5-methyl-1,3-thiazol-4-yl)phenoxy]pentoxy)-benzamidine]		10.56%	12.06%	89.2%	
CCCCCc1nc(-c2ccc(OCCCCCOc3ccc(C(=N)NO)cc3)cc2)c(C)s1 [Example 15, N-hydroxy-4-(5-[4-(5-methyl-2-pentyl-1,3-thiazol-4-yl)phenoxy]pentoxy)-benzamidine]	81 to 89 °C				Survival rates of the cells (cells; MC3T3-E1 cells): 81.8%; Survival rates of the cells (cells; ST2 cells): 42.3%; inhibition at 1 µM [1]: 68.3%
CCc1sc(-c2cccnc2)nc1-c1ccc(OCCCCCOc2ccc(C(=N)NO)cc2)cc1 [Example 21, N-hydroxy-4-(5-[4-(5-ethyl-2-pyridin-3-yl-1,3-thiazol-4-yl)phenoxy]pentoxy)-benzamidine]	146 to 153 °C				change in vivo at 50 mg/kg (ovariectomized ddY mouse): 75.5%
CCc1sc(C2CCCCC2)nc1-c1ccc(OCCCCCOc2ccc(C(=N)NO)cc2)cc1 [Example 22, N-hydroxy-4-(5-[4-(2-cyclohexyl-5-ethyl-1,3-thiazol-4-yl)phenoxy]pentoxy)-benzamidine]		10.33%	8.56%	92.6%	
CCCCCc1nc(-c2ccc(OCCCCCOc3ccc(C(=N)NO)cc3)cc2)c(CC)s1 [Example 23, N-hydroxy-4-(5-[4-(5-ethyl-2-pentyl-1,3-thiazol-4-yl)phenoxy]pentoxy)-benzamidine]	79 to 88 °C				inhibition at 1 µM [1]: 47.7%; change in vivo at 50 mg/kg (ovariectomized ddY mouse): 28%
CC(C)c1nc(-c2ccc(OCCCCCOc3ccc(C(=N)NO)cc3)cc2)c(Cc2ccccc2)s1 [Example 39, N-hydroxy-4-(5-[4-(5-benzyl-2-isopropyl-1,3-thiazol-4-yl)phenoxy]pentoxy)-benzamidine]	108 to 120 °C			37.5%	
N=C(NO)c1ccc(OCCCCCOc2ccc(-c3nc(-c4cccnc4)sc3Cc3ccccc3)cc2)cc1 [Example 41, N-hydroxy-4-(5-[4-(5-benzyl-2-pyridin-3-yl-1,3-thiazol-4-yl)phenoxy]pentoxy)-benzamidine]	134 to 143 °C			64%	Survival rates of the cells (cells; MC3T3-E1 cells): 84.6%; Survival rates of the cells (cells; ST2 cells): 48.7%
CCNc1nc(-c2ccc(OCCCCCOc3ccc(C(=N)NO)cc3)cc2)c(CC2CCCC2)s1 [Example 110, N-hydroxy-4-(5-[4-(5-cyclopentylmethyl-2-ethylamino-1,3-thiazol-4-yl)phenoxy]pentoxy)-benzamidine]		9.76%	9.37%		inhibition at 1 µM [1, 3]: 100%
CCN(CCN1CCOCC1)c1nc(-c2ccc(OCCCCCOc3ccc(C(=N)NO)cc3)cc2)c(C)s1 [Example 124, N-hydroxy-4-(5-[4-(2-(ethyl-1-(2-morpholinoethyl)-amino)-5-methyl-1,3-thiazol-4-yl)phenoxy]pentoxy)-benzamidine]		6.44%	12.9%		% inhibitory activity on osteoclastogenesis ([1]; co-culture of bone marrow cells and osteoblast, 7 days, TRAP-positive osteoclasts versus controls): 87.9%; Changes on TBV (% changes vs vehicle control) (ovariectomized ddY mouse): 72.82%
CCc1sc(N(C)CCO)nc1-c1ccc(OCCCCCOc2ccc(C(=N)NO)cc2)cc1 [Example 129, N-hydroxy-4-(5-[4-(5-ethyl-2-((2-hydroxyethyl)-methyl-amino)-1,3-thiazol-4-yl)phenoxy]pentoxy)-benzamidine]		11.18%	11.54%		inhibition at 1 µM [1, 3]: 64.7%
